Reference: PMC11083829, “Isolation, Characterization, Genome Annotation, and Evaluation of Hyaluronidase Inhibitory Activity in Secondary Metabolites of Brevibacillus sp. JNUCC 41: A Comprehensive Analysis through Molecular Docking and Molecular Dynamics Simulation” (International Journal of Molecular Sciences, 2024)

Biological target: T1, hyaluronidase (HAase) (Bos taurus, UniProt Q2YDK3)
T1 construct: Hyaluronidase was obtained from bovine testes (Sigma-Aldrich, St. Louis, MO, USA); purchased Sigma-Aldrich; host or cells: bovine testes (tissue-derived)
T1 sequence (Q2YDK3 36-553): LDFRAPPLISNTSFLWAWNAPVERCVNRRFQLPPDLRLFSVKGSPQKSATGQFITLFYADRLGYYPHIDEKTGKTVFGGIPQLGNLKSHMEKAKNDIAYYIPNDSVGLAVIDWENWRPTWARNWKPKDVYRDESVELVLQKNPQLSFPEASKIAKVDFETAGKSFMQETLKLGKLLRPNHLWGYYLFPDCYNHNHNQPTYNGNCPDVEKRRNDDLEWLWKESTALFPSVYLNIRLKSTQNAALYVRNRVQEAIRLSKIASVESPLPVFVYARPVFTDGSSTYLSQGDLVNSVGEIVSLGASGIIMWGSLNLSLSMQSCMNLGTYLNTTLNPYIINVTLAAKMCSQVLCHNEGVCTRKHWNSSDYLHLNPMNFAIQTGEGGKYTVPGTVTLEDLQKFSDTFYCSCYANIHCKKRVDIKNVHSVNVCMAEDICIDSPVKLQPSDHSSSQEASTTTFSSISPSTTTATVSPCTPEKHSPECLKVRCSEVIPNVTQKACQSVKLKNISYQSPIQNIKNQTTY
Assay: Hyaluronidase inhibitory activity enzymatic assay (HA substrate, DMAB, absorbance 540 nm)
Assay type: biochemical
Conditions: hyaluronidase from bovine testes; EGCG positive control
Source text: Luria–Bertani Broth (LB) and Lactobacilli MRS Broth (Becton, Franklin Lakes, NJ, USA) were used for the bacterial culture. Silica gel (Merck, Darmstadt, Germany) and Sephadex LH-20 gel (Sigma-Aldrich, St. Louis, MO, USA) were used for chromatographic separations. Thin-layer chromatography (TLC) plates (Merck, Darmstadt, Germany) were used for analytical purposes. Hyaluronidase was obtained from bovine testes (Sigma-Aldrich, St. Louis, MO, USA). Nuclear magnetic resonance (NMR) spectrums were obtained using JNM-ECX 400 (FT-NMR system, 400 MHz, JEOL Co., Akishima, Japan).
In the enzymatic assay, 5 μL of hyaluronidase enzyme and 12.5 mM CaCl2 samples at varying concentrations were added to a 96-well plate. The samples were reacted for 20 min and incubated at 37 °C. After the initial incubation, 25 μL of the substrate solution (HA at a concentration of 2.4 mg/mL) was added. The reaction mixture was incubated again at 37 °C for 40 min. Then, 5 μL of 0.4 N NaOH and 5 μL of 0.4 M potassium tetraborate were added to the mixture, followed by incubation at 100 °C for 3 min. After cooling, 150 μL of DMAB solution (p-dimethylaminobenzaldehyde + acetic acid + 10 N HCL) was added to the reaction mixture. The absorbance of the reaction mixture was measured at 540 nm. Epigallocatechin gallate (EGCG) was used as a positive control in this assay.

SMILES	IC50 [µM]
O=C(O[C@@H]1Cc2c(O)cc(O)cc2O[C@@H]1c1cc(O)c(O)c(O)c1)c1cc(O)c(O)c(O)c1 [EGCG, Epigallocatechin gallate]	172
COC(=O)Cc1c[nH]c2ccccc12 [Methyl indole-3-acetate, methyl indole-3-acetate]	344
